Where two headings read alike, the source gives them in different places. Where a SMILES comes first, the peptide text is derived from it. Bridges are numbered along the chain shown (N, C = ends). [ ]: non-standard residue; d: D form. The star is where a group is joined. X1 = O=C(c1ccc(Cl)cc1Cl)*; Dab = NCC[C@H](N)C(=O)O; Abu = CC[C@H](N)C(=O)O; Dap = NC[C@H](N)C(=O)O
Assay: Plasma pharmacokinetics after multiple ascending doses (MAD), phase 1
Format: in vivo, human (healthy adult participants)
Conditions: for Vd: read-out: VZ
Method: Participants were discharged on day 11.
Plasma and urine PK parameters were summarized for each cohort using descriptive statistics. Analyses using linear models were performed to assess dose proportionality (both single-dose cohorts 1–7 and multiple-dose cohorts 8–10). Dose-linearity of Cmax and AUC across the dose range was assessed by fitting the power model with ln-transformed parameter as response variables and ln-transformed dose (continuous variable) as a fixed effect. For each PK parameter and study phase (SAD or MAD) separately, a pooled estimate (across all dose cohorts) of slope, corresponding 95% confidence interval (CI), and between-subject coefficient of variation (CV) were calculated. Dose proportionality was to be concluded if the 95% CI for the slope spans 1. […] Least square means (LSMs) and difference in LSMs with 90% CI were calculated; these values were then back exponentiated to give the geometric LSM, geometric mean ratio, and 90% CI.

[1] = human, plasma, iv, 100 mg, First q6h dose (day 3), 7-day MAD 100 mg q6h × 7, n = 3, arithmetic mean ± SD
[2] = human, plasma, iv, 100 mg, Last q6h dose (day 9), 7-day MAD 100 mg q6h × 7, n = 6, arithmetic mean ± SD
[3] = human, plasma, iv, 150 mg, First q6h dose (day 1), 14-day MAD 150 mg q6h × 14, Chinese, n = 10, arithmetic mean ± SD
[4] = human, plasma, iv, 150 mg, First q6h dose (day 1), 14-day MAD 150 mg q6h × 14, non-Chinese, n = 10, arithmetic mean ± SD

Q: What does the source list for `CC[C@@H]1NC(=O)[C@@H](CC(C)C)NC(=O)[C@H](CCN)NC(=O)[C@@H](NC(=O)[C@H](CN)NC(=O)[C@@H](NC(=O)[C@H](CCN)NC(=O)c2ccc(Cl)cc2Cl)[C@@H](C)O)CCNC(=O)[C@H]([C@@H](C)O)NC(=O)[C@H](CCN)NC(=O)[C@H](CCN)NC1=O` [BRII-693] (X1-[Dab]T[Dap][Dab][Dab][dL][Abu][Dab][Dab]T; lactam 4-C; N-terminus assumed)?
A: Tmax (First q6h dose (day 1), 14-day MAD 150 mg q6h × 14, Chinese, n = 10, median (range)): 1.08 (1.02, 1.12) h; Tmax (First q6h dose (day 1), 14-day MAD 150 mg q6h × 14, non-Chinese, n = 10, median (range)): 1.07 (1.03, 1.25) h; Tmax (First q6h dose (day 3), 7-day MAD 100 mg q6h × 7, n = 6, median (range)): 1.13 (1.08, 1.25) h; t1/2 (First q6h dose (day 3), 7-day MAD 150 mg q6h × 7, n = 5, arithmetic mean ± SD): 2.40 ± 0.21 h; Tmax (First q6h dose (day 3), 7-day MAD 150 mg q6h × 7, n = 5, median (range)): 1.07 (1.02, 1.15) h; ARAUC (accumulation ratio based on AUC) (Last q6h dose (day 9), 7-day MAD 100 mg q6h × 7, n = 6, arithmetic mean ± SD): 1.59 ± 0.14; ARAUC (accumulation ratio based on AUC) (Last q6h dose (day 9), 7-day MAD 150 mg q6h × 7, n = 5, arithmetic mean ± SD): 1.48 ± 0.10; ARAUC (accumulation ratio based on AUC) (Last q6h dose (day 9), 7-day MAD 200 mg q6h × 7, n = 5, arithmetic mean ± SD): 1.69 ± 0.34; ARAUC (accumulation ratio based on AUC) (Last q6h dose (day 14), 14-day MAD 150 mg q6h × 14, Chinese, n = 6, arithmetic mean ± SD): 1.58 ± 0.19; Tmax (Last q6h dose (day 14), 14-day MAD 150 mg q6h × 14, Chinese, n = 6, median (range)): 1.07 (1.05, 1.22) h; ARAUC (accumulation ratio based on AUC) (Last q6h dose (day 14), 14-day MAD 150 mg q6h × 14, non-Chinese, n = 10, arithmetic mean ± SD): 1.58 ± 0.17; Tmax (Last q6h dose (day 14), 14-day MAD 150 mg q6h × 14, non-Chinese, n = 10, median (range)): 1.07 (1.02, 1.10) h; Geometric mean ratio for AUC0-6h, Chinese vs non-Chinese (after the first dose on day 1, 150 mg q6h × 14, 90% CI: 0.966, 1.20): 1.08; Geometric mean ratio for Cmax, Chinese vs non-Chinese (after the first dose on day 1, 150 mg q6h × 14, 90% CI: 0.970, 1.24): 1.10; Geometric mean ratio for AUC0-6h, Chinese vs non-Chinese (after the last dose on Day 14, 150 mg q6h × 14, 90% CI 0.926, 1.25): 1.08; Geometric mean ratio for Cmax, Chinese vs non-Chinese (after the last dose on Day 14, 150 mg q6h × 14, 90% CI 0.935, 1.20): 1.06; Cmax (human, plasma, iv, 100 mg, First q6h dose (day 3), 7-day MAD 100 mg q6h × 7, 1-h IV infusion, plasma, n = 6, arithmetic mean ± SD): 5960 ± 710 ng/mL; clearance [1]: 80.5 mL/min; Vd [1]: 17.1 ± 2.72 L; half-life (human, plasma, iv, 100 mg, First q6h dose (day 3), 7-day MAD 100 mg q6h × 7, n = 6, arithmetic mean ± SD): 2.88 ± 0.5 h; AUC(0-t) (human, plasma, iv, 100 mg, First q6h dose (day 3), 7-day MAD 100 mg q6h × 7, n = 6, arithmetic mean ± SD, read-out: AUC0-6h): 18000 ± 2380 ng·h/mL; clearance [2]: 59.5 mL/min; half-life [2]: 7.58 ± 1.72 h; AUC(0-t) (human, plasma, iv, 100 mg, Last q6h dose (day 9), 7-day MAD 100 mg q6h × 7, n = 6, arithmetic mean ± SD, read-out: AUC0–6h): 28600 ± 4480 ng·h/mL; Vd [2]: 38.4 ± 8.18 L; Tmax (human, plasma, iv, 100 mg, Last q6h dose (day 9), 7-day MAD 100 mg q6h × 7, n = 6, median (range), read-out: Tmax): 1.18 h; Cmax (human, plasma, iv, 100 mg, Last q6h dose (day 9), 7-day MAD 100 mg q6h × 7, plasma, n = 6, arithmetic mean ± SD): 8120 ± 1000 ng/mL; clearance [3]: 77.7 mL/min; half-life [3]: 2.15 ± 0.28 h; AUC(0-t) (human, plasma, iv, 150 mg, First q6h dose (day 1), 14-day MAD 150 mg q6h × 14, Chinese, n = 10, arithmetic mean ± SD, read-out: AUC0-6h): 27300 ± 4140 ng·h/mL; Vd [3]: 14.4 ± 2.93 L; Cmax (human, plasma, iv, 150 mg, First q6h dose (day 1), 14-day MAD 150 mg q6h × 14, Chinese, plasma, n = 10, arithmetic mean ± SD): 10200 ± 1890 ng/mL; clearance [4]: 80 mL/min; half-life [4]: 2.42 ± 0.29 h; AUC(0-t) (human, plasma, iv, 150 mg, First q6h dose (day 1), 14-day MAD 150 mg q6h × 14, non-Chinese, n = 10, arithmetic mean ± SD, read-out: AUC0-6h): 25200 ± 2860 ng·h/mL; Vd [4]: 16.7 ± 2.57 L; Cmax (human, plasma, iv, 150 mg, First q6h dose (day 1), 14-day MAD 150 mg q6h × 14, non-Chinese, plasma, n = 10, arithmetic mean ± SD): 9200 ± 1050 ng/mL; Cmax (human, plasma, iv, 150 mg, First q6h dose (day 3), 7-day MAD 150 mg q6h × 7, 1-h IV infusion, plasma, n = 5, arithmetic mean ± SD): 8690 ± 1240 ng/mL; clearance (human, plasma, iv, 150 mg, First q6h dose (day 3), 7-day MAD 150 mg q6h × 7, n = 5, arithmetic mean ± SD): 82.3 mL/min

— paper PMC11784026, “Phase 1 study of the safety, tolerability, and pharmacokinetics of a synthetic macrocyclic peptide antibiotic (BRII-693) in healthy adult participants” (Antimicrobial Agents and Chemotherapy, 2024)
